Columns and labels:
Assay type in all cases: in vivo, mice
LU-01-0030 xenograft = assay: second LU-01-0030 xenograft study, Compound 1 and radiation
Source text: In a second study with the LU-01-0030 xenograft model, 6-8 week old female BALB/c nude (Shanghai Sino-British SIPPR/BK Laboratory Animal Co., LTD.) mice were implanted subcutaneously with approximate 20-30 mm^3 LU-01-0030 tumor slices in the right flank. When the mean tumor volume reached approximately 182 mm^3, the animals were randomized into 6 treatment groups (n=8/group).
(§1) Compound 1 [((1R,2R,3S,4R)-2,3-dihydroxy-4-(2-(3-(trifluoromethylthio) ? phenyl)pyrazolo[1,5-a]pyrimidin-7-ylamino)cyclopentyl)methyl sulfamate] is formulated in 10% HPbCD in sterile water and administered intravenously on days 0, 3, 7, 10, 14, 17 in the LU-01-0266 and HN-13-0007 models and on days 0, 3, 8, 11, 15, 18 in the ST-02-0004 model and in the second study with the LU-01-0030 model. Compound 1 formulation was prepared weekly and stored at room temperature in the dark.
Beam-focused radiation was delivered using 4 Gray dosed on day 0 in the second study for the LU-01-0030 model.
(§2) Tumors were measured twice weekly using vernier calipers. Tumor volumes were calculated using the following formula: (0.5×[length×width^2]). Treatment groups and dosing/treatment schedules are indicated in Tables 1a, 2a, 3a, 4a, and 5a below. Tumor size and body weight are measured approximately twice a week for the duration of the study. Mice are euthanized when their tumor volume reached approximately 1000 mm^3. Tumor growth continued to be monitored after the dosing period in some studies. In Tables 1a, 2a, 3a, 4a, and 5a tumor volumes are shown for HN-13-0014 (day 21), LU-01-0030 (day 21), the second LU-01-0030 study (day 20), LU-01-0266 (day 20), ST-02-0004 (day 21) and FIN-13-0007 (day 24), respectively. Average tumor volume is reported as a function of time for selected groups of selected studies.
(§3) Measurements from day 0 to day 20, day 21 or day 24 are analyzed as specified in Tables below. All tumor volumes have a value of 1 added to them before log10 transformation. For each animal, the log tumor volume at day 0 is subtracted from the log tumor volume on the subsequent days. This difference vs. time is used to calculate an area under the curve (AUC) for each animal using the trapezoid rule. In instances when an animal in a treatment group is removed early from the study, the last observed tumor value is carried forward through all subsequent time points. The synergy score for the combination of agents A and B is defined as 100*(mean(AUCAB)−mean(AUCA)−mean(AUCB)+mean(AUCctl))/mean(AUCctl): where AUCAB, AUCA, AUCB, and AUCctl are the AUC values for animals in the combination group, the A group, the B group, and the control group, respectively. The standard error of the synergy score is computed based on the variation in the AUC values among the animals. […] If the P-value is above 0.05, then the combination is considered to be additive. If the P-value is below 0.05, and the synergy score is less than zero, then the combination is considered to be synergistic. If the P-value is below 0.05 and the synergy score was greater than zero, but the mean AUC for the combination was lower than the lowest mean AUC among the two single agent treatments, then the combination was sub-additive. If the P-value is below 0.05 and if the synergy score was greater than zero, and the mean AUC for the combination was greater than the mean AUC for at least one of the single agent treatments, then the combination was antagonistic.

LU-01-0266 xenograft = LU-01-0266 xenograft model, Compound 1 and radiation; settings: for Classification / Synergy score: through Day 20
Source text: (§4) The LU-01-0266 xenograft model is a human primary non-small cell lung tumor model. Approximately nine week old female BALB/c nude (Shanghai Sino-British SIPPR/BK Laboratory Animal Co., LTD.) mice were implanted subcutaneously with approximate 30 mm^3 LU-01-0266 tumor slices in the right flank. When the mean tumor volume reached approximately 173 mm^3, the animals were randomized into 10 treatment groups (n=8/group).
as §1
(§5) Beam-focused radiation was delivered using 2 Gray dosed on days 0, 1, 7, and 8 or on days 0, 3, 7, and 10 in the LU-01-0266 and HN-13-0007 models. In the ST-02-0004 model 2 Gray of radiation was delivered on days 0, 1, 3, and 8. A Rad Source RS-2000 X-ray irradiator was used for therapy (Rad Source). Before radiation, animals were anesthetized by i.p. injection using 1.0% sodium pentobarbital at 80 mg/kg (Vendor: Sigma). Focused radiation was applied to each mouse at 1 Gy/min.
as §2, §3

ST-02-0004 xenograft = ST-02-0004 xenograft model, Compound 1 and radiation; settings: for Classification / Synergy score: through Day 21
Source text: as §4, with “ST-02-0004” for “LU-01-0266”, “gastric cancer” for “non-small cell lung tumor”, “162” for “173”, “6” for “10”
as §1, §5, §2, §3

[1] = 6.25 mg/kg Compound 1 + 4 Gy Radiation D0
[2] = 15 mg/kg Compound 1 + 4 Gy Radiation D0
[3] = 6.25 mg/kg Compound 1 + 2 Gy Radiation D0, 1, 7, 8
[4] = 6.25 mg/kg Compound 1 + 2 Gy Radiation D0, 3, 7, 10
[5] = 15 mg/kg Compound 1 + 2 Gy Radiation D0, 1, 7, 8
[6] = 15 mg/kg Compound 1 + 2 Gy Radiation D0, 3, 7, 10
[7] = 6.25 mg/kg compound 1 + 2 Gy Radiation D0, 1, 3, 8
[8] = 15 mg/kg compound 1 + 2 Gy Radiation D0, 1, 3, 8

In the case of `NS(=O)(=O)OC[C@H]1C[C@@H](Nc2ccnc3cc(-c4cccc(SC(F)(F)F)c4)nn23)[C@H](O)[C@@H]1O` [Compound 1, ((1R,2R,3S,4R)-2,3-dihydroxy-4-(2-(3-(trifluoromethylthio)phenyl)pyrazolo[1,5-a]pyrimidin-7-ylamino)cyclopentyl)methyl sulfamate], the Classification (LU-01-0030 xenograft; [1]) was “Additive (If the P-value is above 0.05, then the combination is considered to be additive)”, the Synergy score (LU-01-0030 xenograft; [1]) was −74.5 and the “Tumor Volume Day 20” value (LU-01-0030 xenograft; 6.25 mg/kg Compound 1 IV D 0, 3, 8, 11, 15, 18 + 4 Gy Radiation Beam D 0) was 83.8 mm^3. For the same compound, the “Tumor Volume Day 20” value (LU-01-0030 xenograft; 6.25 mg/kg Compound 1 IV D 0, 3, 8, 11, 15, 18, single agent) was 648.9 mm^3, the Classification (LU-01-0030 xenograft; [2]) was “Additive (If the P-value is above 0.05, then the combination is considered to be additive)” and the Synergy score (LU-01-0030 xenograft; [2]) was −10.3. For the same compound, the “Tumor Volume Day 20” value (LU-01-0030 xenograft; 15 mg/kg Compound 1 IV D 0, 3, 8, 11, 15, 18 + 4 Gy Radiation Beam D 0) was 2.04 mm^3, the “Tumor Volume Day 20” value (LU-01-0030 xenograft; 15 mg/kg Compound 1 IV D 0, 3, 8, 11, 15, 18, single agent) was 67.8 mm^3 and the combination effect (LU-01-0030 xenograft; Compound 1 with 4 Gy radiation) was “additive combination effect”. The “Tumor Volume Day 20” value (LU-01-0266 xenograft; 6.25 mg/kg Compound 1 IV BIWx3 + 2 Gy Radiation Beam D 0, 1, 7, 8) was 181.6 mm^3, the “Tumor Volume Day 20” value (LU-01-0266 xenograft; 6.25 mg/kg Compound 1 IV BIWx3 + 2 Gy Radiation Beam D 0, 3, 7, 10) was 213.4 mm^3 and the “Tumor Volume Day 20” value (LU-01-0266 xenograft; 6.25 mg/kg Compound 1 IV BIWx3 = D 0, 3, 7, 10, 14, 17, single agent) was 1004.5 mm^3. For the same compound, the “Tumor Volume Day 20” value (LU-01-0266 xenograft; 15 mg/kg Compound 1 IV BIWx3 + 2 Gy Radiation Beam D 0, 1, 7, 8) was 77.4 mm^3, the “Tumor Volume Day 20” value (LU-01-0266 xenograft; 15 mg/kg Compound 1 IV BIWx3 + 2 Gy Radiation Beam D 0, 3, 7, 10) was 174.9 mm^3 and the “Tumor Volume Day 20” value (LU-01-0266 xenograft; 15 mg/kg Compound 1 IV BIWx3 = D 0, 3, 7, 10, 14, 17, single agent) was 779 mm^3. For the same compound, the combination effect (LU-01-0266 xenograft; Compound 1 with 2 Gy radiation) was “additive combination effect”, the “anti-tumor activity compared to the vehicle control” value (LU-01-0266 xenograft; single agent, IV at 6.25 and 15 mg/kg BIW for 3 weeks on Days 0, 3, 7, 10, 14, 17) was “weak anti-tumor activity” and the Classification (LU-01-0266 xenograft; [3]) was “Additive (If the P-value is above 0.05, then the combination is considered to be additive)”. The Synergy score (LU-01-0266 xenograft; [3]) was 14, the Classification (LU-01-0266 xenograft; [4]) was “Additive (If the P-value is above 0.05, then the combination is considered to be additive)” and the Synergy score (LU-01-0266 xenograft; [4]) was 15. For the same compound, the Classification (LU-01-0266 xenograft; [5]) was “Additive (If the P-value is above 0.05, then the combination is considered to be additive)”, the Synergy score (LU-01-0266 xenograft; [5]) was −25 and the Classification (LU-01-0266 xenograft; [6]) was “Additive (If the P-value is above 0.05, then the combination is considered to be additive)”. For the same compound, the Synergy score (LU-01-0266 xenograft; [6]) was 12, the “Tumor Volume Day 21” value (ST-02-0004 xenograft; 6.25 mg/kg compound 1 IV BIWx3 + 2 Gy Radiation Beam D 0, 1, 3, 8) was 266.8 mm^3 and the “Tumor Volume Day 21” value (ST-02-0004 xenograft; 6.25 mg/kg compound 1 IV BIWx3 = D 0, 3, 8, 11, 15, 18, single agent) was 697.1 mm^3. The “Tumor Volume Day 21” value (ST-02-0004 xenograft; 15 mg/kg compound 1 IV BIWx3 + 2 Gy Radiation Beam D 0, 1, 3, 8) was 178.2 mm^3, the “Tumor Volume Day 21” value (ST-02-0004 xenograft; 15 mg/kg compound 1 IV BIWx3 = D 0, 3, 8, 11, 15, 18, single agent) was 755.2 mm^3 and the combination effect (ST-02-0004 xenograft; Compound 1 at 6.25 mg/kg with 2 Gy of Radiation) was “additive combination effect”. The combination effect (ST-02-0004 xenograft; Compound 1 at 15 mg/kg with 2 Gy of Radiation) was “synergistic combination effect”, the “anti-tumor activity compared to the vehicle control” value (ST-02-0004 xenograft; single agent, IV at 6.25 and 15 mg/kg for 3 weeks on Days 0, 3, 8, 11, 15 and 18) was “no significant anti-tumor activity” and the Classification (ST-02-0004 xenograft; [7]) was “Additive (If the P-value is above 0.05, then the combination is considered to be additive)”. For the same compound, the Synergy score (ST-02-0004 xenograft; [7]) was 10, the Classification (ST-02-0004 xenograft; [8]) was “Synergy (If the P-value is below 0.05, and the synergy score is less than zero, then the combination is considered to be synergistic)” and the Synergy score (ST-02-0004 xenograft; [8]) was −49.

Reference: patent publication US10335411B2, “Administration of ubiquitin-activating enzyme inhibitor and radiation” (Millennium Pharmaceuticals, Inc., priority 2014, dated 2019)
